Marks after values point to notes of the source that are not given here.
Experiments:
Collateral Vessel [1] = assay: Collateral vessel dilating action by intravenous administration (Collateral Index, carotid artery occlusion); format: in vivo, Beagle dogs (male); settings: dose of 0.3 mg/kg, intravenous (inguinal vein), anesthetized dogs
Procedure: Collateral Vessel Dilating Action by Intravenous Administration
Beagle dogs (male) weighing 9 to 13 kg were anesthetized by intravenous injection of pentobarbital at a dose of 30 mg/kg and tested under artificial respiration. In order to measure the pressure of the left carotid artery, a polyethylene cannula (Atom intravenous catheter 2F) was inserted […] into one branch of the left thyroid artery. The left carotid artery upstream from this pressure measurement site was occluded for 1 minute with an arterial clamp, and the pressure immediately before occlusion (P) and the decrease in peripheral pressure (ΔP) were measured. Next, the test drug was administered through another polyethylene cannula inserted into the inguinal vein. The left carotid artery was occluded for 1 minute after 5, 15, 30, 45 and 60 minutes, and pressure immediately before occlusion (Pa) and the decrease in peripheral pressure (ΔPa) each time were measured. Collateral vessel dilating effect (Collateral Index = CI) of the test drug was determined according to the following formula: CI = 100 - (ΔPa/Pa) x 100/(ΔP/P) [formula]

aspirin-induced ulcer = assay: Inhibition of aspirin-induced ulcer; format: in vivo, Donryu strain male rats; settings: for Inhibition rate (%): 1 hour before aspirin, area of ulceration vs control group
Procedure: Inhibition of aspirin-induced ulcer
As a test animal, 10 Donryu strain male rats each weighing 200 g-250 g were used in one group. The rats were fasted before the experiment for 24 hours but they could freely drink water. The test compounds were suspended in 0.5% carboxymethyl cellulose (CMC) solution. Meanwhile, for a control group, 0.5% CMC solution was used.
The test compound was orally administered (0.1 ml/100 g body weight) to the rats and an aspirin solution (150 mg/ml: suspended in 0.5% CMC solution) was orally administered (0.1 ml/100 g body weight) to the rats 1 hour later. Four hours after the administration of the aspirin solution, the rats were sacrificed using carbon dioxide gas and the stomach of each rat was taken out. Into the stomachs were poured 10 ml of 1% formalin solution to allow the stomachs to expand, and the stomachs were immersed in 1% formalin solution in a beaker for about 15-20 minutes. Then, each stomach was cut along the greater curvature thereof and an area of the ulceration in the gastric mucosa was measured by means of an image analysis apparatus [Luzex-F: manufactured by Nireko Co., Ltd.]. The average value of the area of the ulceration of each group was calculated from the area of the ulceration of each rat and the inhibition rate was obtained by comparing the average value of the test group with that of the control group.

[2] = Stability of compounds (storage, residual ratio by high pressure liquid chromatography); format: physicochemical; settings: for storage stability: in words
Procedure: About 2 mg of the test compound was accurately weighed and placed in a brown bottle. The bottle was left to stand at a dark place at room temperature (24-26°C) for 4 weeks and a residual ratio (%) of the test compound was measured by high pressure liquid chromatography (column: Inertsil ODS-3, eluting solvent: 10 mM (pH=7.0) phosphoric acid buffer/acetonitrile=80/20).

Collateral Vessel [3] = assay: Collateral vessel dilating action by administration into the portal vein (first-pass effect test); format: in vivo, Beagle dogs (male); settings: administered into the portal vein, compared with intravenous administration, 60 minutes
Procedure: Collateral Vessel Dilating Action by Administration into the Portal Vein
While test specimens were prepared according to the method of Test example 1, the animal was laparotomized along the abdominal median line, and a branch of the mesenteric vein was removed and incised so as to administer the test drug into the portal vein. A polyethylene cannula (Atom intravenous catheter 2F) was inserted antegrade into this vein to reside in the portal vein, and then the test drug was administered through it. In order to test the first-pass effect of the test drug, it was first administered intravenously (inguinal vein) to determine collateral vessel dilating action of the drug for 60 minutes. The same test drug was then administered into the portal vein 2 or 3 hours later to determine collateral vessel dilating action for 60 minutes, and those actions were compared with each other.

SMILES: CCC[C@@H](CO[N+](=O)[O-])NC(=O)[C@@H]1CSC(=O)N1 [Example 5, (4R)-N-[(1S)-1-Propyl-2-nitroxyethyl]-2-oxothiazolidin-4-yl-carboxamide]
- CI(60) (Collateral Vessel [1]): > 10

SMILES: CC(C)C[C@@H](CO[N+](=O)[O-])NC(=O)[C@@H]1CSC(=O)N1 [Example 8, (4R)-N-[(1S)-1-Isobutyl-2-nitroxyethyl]-2-oxothiazolidin-4-yl-carboxamide]
- CI(60) (Collateral Vessel [1]): > 10

SMILES: C[C@@H](CO[N+](=O)[O-])NC(=O)[C@@H]1CSC(=O)N1 [Example 1, (4R)-N-[(1S)-1-Methyl-2-nitroxyethyl]-2-oxothiazolidin-4-vl-carboxamide]
- Inhibition rate (%) (aspirin-induced ulcer; 30 mg/kg orally, p<0.05): 63.58*^) %
- Inhibition rate (%) (aspirin-induced ulcer; 100 mg/kg orally, p<0.005): 80.15**^) %
- Inhibition rate (%) (aspirin-induced ulcer; 300 mg/kg orally, p<0.005): 93.17**^) %
- anti-ulcerative action (aspirin-induced ulcer; result in words, summary of Table 4): excellent anti-ulcerative action
- Residual ratio (%) ([2]; dark place at room temperature (24-26°C) for 4 weeks, brown bottle): 101.2%
- storage stability ([2]; as compared with the 1:1 mixture of Example 1 and the (4R),(1R)-isomer): excellent storage stability
- storage stability ([2]; as compared with the (4R),(1R)-isomer): excellent storage stability
- collateral vessel dilating action (Collateral Vessel [3]): excellent collateral vessel dilating action
- CI(60) (Collateral Vessel [1]): > 10

SMILES: CCCC[C@@H](CO[N+](=O)[O-])NC(=O)[C@@H]1CSC(=O)N1 [Example 6, (4R)-N-[(1S)-1-Butyl-2-nitroxyethyl]-2-oxothiazolidin-4-yl-carboxamide]
- CI(60) (Collateral Vessel [1]): > 10
